Laboratory results reported in BindingDB's records for doi:10.7270/Q2GF0RZ3 (Burnham Center For Chemical Genomics, 2010).

target: G-protein coupled receptor 55 (Homo sapiens, UniProt Q9Y2T6); assay: GPR55 agonists via beta-arrestin recruitment, primary screen, imaging, U2OS cells, beta-arrestin-GFP redistribution (AID 1961)
Sequence (Q9Y2T6 whole entry): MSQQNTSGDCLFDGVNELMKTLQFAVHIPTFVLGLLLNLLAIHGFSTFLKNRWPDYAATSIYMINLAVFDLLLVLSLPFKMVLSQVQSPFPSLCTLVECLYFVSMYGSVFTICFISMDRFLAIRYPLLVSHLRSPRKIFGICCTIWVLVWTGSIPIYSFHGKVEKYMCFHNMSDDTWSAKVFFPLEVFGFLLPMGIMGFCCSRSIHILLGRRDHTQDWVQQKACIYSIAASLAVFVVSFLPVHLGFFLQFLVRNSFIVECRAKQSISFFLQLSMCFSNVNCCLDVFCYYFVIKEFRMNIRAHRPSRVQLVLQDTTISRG

Row | EC50 | Structure (SMILES)
1 | 32 µM | COC1=CC(=Cc2c(-c3ccccc3)[nH]oc2=O)C=C(Cl)C1=O [4-[(Z)-(3-chloro-5-methoxy-4-oxo-1-cyclohexa-2,5-dienylidene)methyl]-3-phenyl-2H-isoxazol-5-one]
2 | 0.5 µM | Cc1ccc(NS(=O)(=O)c2cc([N+](=O)[O-])ccc2N=NCc2sc(N3CCOCC3)nc2-c2ccccc2)c(C)c1 [MLS000408840]
3 | 3.41 µM | COc1ccc(C2c3sc4nc(C)cc(C)c4c3OC(=N)C2C#N)cc1 (configuration not stated) [2-amino-4-(4-methoxyphenyl)-7,9-dimethyl-4H-pyrano[2',3':4,5]thieno[2,3-b]pyridine-3-carbonitrile]
4 | 32 µM | N#CC1C(=N)OC2=C(CC/C2=C\c2ccccc2)C1c1ccccc1 (configuration not stated) [SMR000176483]
5 | 32 µM | N#CC1C(=O)NC(c2ccc(-c3cc(Cl)ccc3Cl)o2)N(c2ccccc2)C1=S (configuration not stated) [MLS000592167]
6 | 21.3 µM | C=c1[nH]n(-c2ccc(C(=O)O)cc2)c(=O)c1=Cc1ccc(-c2ccccc2F)o1 [4-((4E)-4-{[5-(2-fluorophenyl)-2-furyl]methylene}-3-methyl-5-oxo-4,5-dihydro-1H-pyrazol-1-yl)benzoic acid]

Row | Structure (SMILES) | EC50
7 | CC(C)CN1C(=O)/C(=N\NC(=O)c2cccc(S(=O)(=O)N3CCCCC3)c2)c2ccccc21 [MLS000417389] | 4.75 µM
